Reference: article PMC10619693, “Structural identification of catalytic His158 of PtMAC2p from Pseudozyma tsukubaensis, an acyltransferase involved in mannosylerythritol lipids formation” (Frontiers in Bioengineering and Biotechnology, 2023)

Molecular target: T1, PtMAC2p (Pseudozyma tsukubaensis, UniProt A0A2Z6ERP5)
T1 construct: gene PtMAC2
Experiment: DTNB (Ellman) assay of CoA release, absorbance at […] nm
Assay type: biochemical
Conditions: 0.1 mM lauroyl-CoA; co-substrate 1 mM mono-acylated MEL-D; 1 mM DTNB; 50 mM sodium phosphate pH 7.2, 25 °C

T1 sequence (A0A2Z6ERP5 1-549): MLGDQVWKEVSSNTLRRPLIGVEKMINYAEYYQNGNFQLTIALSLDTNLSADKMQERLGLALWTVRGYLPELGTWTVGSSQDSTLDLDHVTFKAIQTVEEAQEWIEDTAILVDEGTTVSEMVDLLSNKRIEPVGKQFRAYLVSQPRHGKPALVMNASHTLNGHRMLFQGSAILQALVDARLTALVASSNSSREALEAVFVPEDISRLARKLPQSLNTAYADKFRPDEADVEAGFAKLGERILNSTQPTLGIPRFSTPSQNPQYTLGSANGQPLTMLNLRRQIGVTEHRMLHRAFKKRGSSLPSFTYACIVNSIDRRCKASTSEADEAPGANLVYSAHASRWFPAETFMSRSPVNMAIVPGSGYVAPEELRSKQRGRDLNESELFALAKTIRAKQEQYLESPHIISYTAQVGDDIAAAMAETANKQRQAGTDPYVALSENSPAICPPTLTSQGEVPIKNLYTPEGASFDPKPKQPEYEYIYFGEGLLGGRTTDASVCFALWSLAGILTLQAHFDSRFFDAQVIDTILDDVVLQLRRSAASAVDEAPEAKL

CCCCCCCCCCCC(=O)SCCNC(=O)CCNC(=O)[C@H](O)C(C)(C)COP(=O)(O)OP(=O)(O)OC[C@H]1O[C@@H](n2cnc3c(N)ncnc32)[C@H](O)[C@@H]1OP(=O)(O)O [lauroyl-CoA]
DTNB (Ellman) assay of CoA release, absorbance at 412 nm: Purified PtMAC2p catalyzes the transfer of a fatty acid of lauroyl-CoA (C12)
